Experimental data: US20230405003A1, “APPLICATION OF THYMIDINE DERIVATIVE IN PREPARATION OF DRUGS” (ONQUALITY PHARMACEUTICALS CHINA LTD., priority 2020, published 2023)

Test system: HaCaT cells
Assay: Relief of 5-FU proliferative toxicity to HaCaT cells (CCK-8 cell survival)
Type: cell-based
Conditions: for activation at 1 µM: compound 1 μM; for activation at 5 µM: compound 5 μM; for activation at 10 µM: compound 10 μM; for activation at 50 µM: compound 50 μM; for activation at 100 µM: compound 100 μM; for activation at 200 µM: compound 200 μM; for activation at 500 µM: compound 500 μM; for activation at 1000 µM: compound 1000 μM; for Cell Survival Rate (increased percentage of cell survival compared with the Group of 5-FU): 5-Fu 20 μM, HaCaT cells
Procedure: The cultured skin cell HaCaTs were digested, counted, and inoculated into a 96-well plate with 5000-10000 cells in each well. After 24 h of culture, the wells were divided into Group of blank solvent control, Group of 5-FU, Group of 5-FU+thymidine derivative, Group of 5-FU+the combination of thymidine derivative and uridine derivative. […] adding a solution of 5-FU and a solution of thymidine derivative (the final concentrations of 5-FU and thymidine derivative are shown in Table 3, the solution of thymidine is an aqueous solution, while the solutions of thymidine derivatives are all DMSO solutions); Group of 5-FU+the combination of thymidine derivative and uridine derivative: adding a solution of 5-FU and a mixed solution of thymidine derivative and uridine derivative (the final concentrations of the solution of 5-FU and the mixed solution of thymidine derivative+uridine derivative are shown in Table 3, the solution of thymidine is an aqueous solution, while the mixed solutions of thymidine derivative+uridine derivative are all DMSO solutions); Group of blank solvent control: adding the same type of solution as those of the corresponding Group of 5-FU or Group of 5-FU+thymidine derivative (or the mixed solution of thymidine derivative+uridine derivative) in equal volume. Group of blank solvent control was used as control to exclude the influence of the solvents in Group of 5-FU and Group of 5-FU+thymidine derivative (or the mixed solution of thymidine derivative+uridine derivative) on the results. After additional 48 hours of culture, a Cell Counting Kit-8 (CCK-8) detection kit (C0037, purchased from Shanghai Beyotime Biotechnology) is used to determine the cell survival rate, thereby calculating the proliferative toxicity of 5-Fu/5-DFUR on cells and the relieving effect of the thymidine derivative (or the mixed solution of thymidine derivative+uridine derivative) on the proliferative toxicity. Using GraphPad Prism 6.0 software, the results were statistically analyzed by t-test and plotted.
(§1) Table 3 lists the combinations of 5-FU and thymidine derivative (or the mixed solution of thymidine derivative+uridine derivative), and the corresponding experimental results (wherein the data in the column of cell survival indicate the corresponding increased percentage of the cell survivals of Group of 5-FU+thymidine derivative or Group of 5-FU+the combination of thymidine derivative and uridine derivative compared with the Group of 5-FU). FIGS. 3-10 list the experimental results of several representative compounds.
The effect of thymidine derivative or a combination of thymidine derivative and uridine derivative on relieving the proliferative toxicity of a chemotherapeutical drug (5-FU) to HaCaT cells was tested according to the method in Examples 2-29. The test thymidine derivative or the combination of thymidine derivative and uridine derivative, as well as the final concentration of the test compounds were shown in Table 7.
as §1, with “7” for “3”, “15-21” for “3-10”, “exemplary” for “representative”

[1] = Homo sapiens, HaCaT, increase vs Group of 5-FU, 5-FU 20 μM, 48 h, read-out: Cell Survival Rate
[2] = selected compound final concentration 0.8 μM
[3] = selected compound final concentration 1.6 μM
[4] = selected compound final concentration 3.13 μM
[5] = selected compound final concentration 6.25 μM
[6] = selected compound final concentration 12.5 μM
[7] = selected compound final concentration 25 μM
[8] = selected compound final concentration 50 μM
[9] = selected compound final concentration 100 μM

Compound: Cc1cn([C@H]2C[C@H](OC(=O)C3CCCC3)[C@@H](COC(=O)C3CCCC3)O2)c(=O)[nH]c1=O [T8]
- activation at 1 µM [1]: 15 to 25%
- activation at 5 µM [1]: 27 to 37%
- activation at 10 µM [1]: 35 to 45%
- activation at 50 µM [1]: 32 to 39%
- activation at 100 µM [1]: 40 to 47%
- activation at 200 µM [1]: 3 to 9%

Compound: Cc1cn([C@H]2C[C@H](OC(=O)C3CC3)[C@@H](COC(=O)C3CC3)O2)c(=O)[nH]c1=O [T9]
- activation at 1 µM [1]: -10 to -3%
- activation at 10 µM [1]: 10 to 18%
- activation at 50 µM [1]: 24 to 31%
- activation at 200 µM [1]: 27 to 34%
- activation at 500 µM [1]: 30 to 38%
- activation at 1000 µM [1]: 35 to 40%
- activation at 1500 µM (Homo sapiens, HaCaT, increase vs Group of 5-FU, 5-FU 20 μM, compound 1500 μM, 48 h, read-out: Cell Survival Rate): 13 to 20%

Compound: Cc1cn([C@H]2C[C@H](OC(=O)Cc3ccccc3)[C@@H](COC(=O)Cc3ccccc3)O2)c(=O)[nH]c1=O [T10]
- activation at 1 µM [1]: 5 to 10%
- activation at 2 µM (Homo sapiens, HaCaT, increase vs Group of 5-FU, 5-FU 20 μM, compound 2 μM, 48 h, read-out: Cell Survival Rate): 14 to 22%
- activation at 5 µM [1]: 35 to 45%
- activation at 10 µM [1]: 60 to 70%
- activation at 20 µM (Homo sapiens, HaCaT, increase vs Group of 5-FU, 5-FU 20 μM, compound 20 μM, 48 h, read-out: Cell Survival Rate): 65 to 75%
- activation at 50 µM [1]: 65 to 75%

Compound: Cc1cn([C@H]2C[C@H](O)[C@@H](COC(=O)OC3CC3)O2)c(=O)[nH]c1=O [T11]
- activation at 1 µM [1]: -5 to 0%
- activation at 5 µM [1]: 11 to 16%
- activation at 10 µM [1]: 27 to 33%
- activation at 50 µM [1]: 35 to 45%
- activation at 100 µM [1]: 38 to 45%
- activation at 200 µM [1]: 38 to 46%
- activation at 500 µM [1]: 40 to 50%
- activation at 1000 µM [1]: 7 to 14%

Compound: Cc1cn([C@H]2C[C@H](OC(=O)NC3CCCC3)[C@@H](COC(=O)NC3CCCC3)O2)c(=O)[nH]c1=O [T12]
- activation at 1 µM [1]: 0 to 5%
- activation at 10 µM [1]: 9 to 16%

Compound: Cc1cn([C@H]2C[C@H](OC(=O)C(C)C)[C@@H](COC(=O)C(C)C)O2)c(=O)[nH]c1=O [T13]
- activation at 1 µM [1]: 15 to 25%
- activation at 10 µM [1]: 40 to 50%
- activation at 100 µM [1]: 25 to 35%

Compound: Cc1cn([C@H]2C[C@H](OC(=O)Oc3ccccc3)[C@@H](COC(=O)Oc3ccccc3)O2)c(=O)[nH]c1=O [T14]
- activation at 1 µM [1]: 12 to 20%
- activation at 10 µM [1]: 30 to 40%
- activation at 100 µM [1]: 8 to 15%

Compound: Cc1cn([C@H]2C[C@H](OC(=O)NC3CC3)[C@@H](COC(=O)NC3CC3)O2)c(=O)[nH]c1=O [T15]
- activation at 1 µM [1]: 13 to 20%
- activation at 10 µM [1]: 13 to 20%
- activation at 100 µM [1]: 20 to 30%
- activation at 500 µM [1]: 25 to 35%
- activation at 1000 µM [1]: 9 to 16%

Compound: Cc1cn([C@H]2C[C@H](OC(=O)Nc3ccccc3)[C@@H](COC(=O)Nc3ccccc3)O2)c(=O)[nH]c1=O [T16]
- activation at 1 µM [1]: 0 to 5%
- activation at 10 µM [1]: 7 to 14%

Compound: CC(=O)NC[C@H]1O[C@@H](n2cc(C)c(=O)[nH]c2=O)C[C@@H]1OC(C)=O [T17]
- activation at 1 µM [1]: 15 to 25%
- activation at 10 µM [1]: 18 to 26%
- activation at 100 µM [1]: 25 to 35%
- activation at 200 µM [1]: 30 to 40%
- activation at 500 µM [1]: 35 to 45%

Compound: Cc1cn([C@H]2C[C@H](O)[C@@H](CO[Si](C)(C)C(C)(C)C)O2)c(=O)[nH]c1=O [T18]
- activation at 1 µM [1]: 6 to 12%
- activation at 10 µM [1]: 7 to 15%

Compound: Cc1cn([C@H]2C[C@H](O)[C@@H](COC(=O)OCc3ccccc3)O2)c(=O)[nH]c1=O [T19]
- activation at 1 µM [1]: 35 to 45%
- activation at 10 µM [1]: 60 to 70%
- activation at 100 µM [1]: 58 to 67%
- activation at 500 µM [1]: 35 to 45%

Compound: Cc1cn([C@H]2C[C@H](OC(=O)OCC(C)C)[C@@H](COC(=O)OCC(C)C)O2)c(=O)[nH]c1=O [T20]
- activation at 1 µM [1]: 48 to 58%
- activation at 10 µM [1]: 58 to 66%
- activation at 100 µM [1]: 55 to 65%

Compound: Cc1cn([C@H]2C[C@H](OC(=O)OCC(C)(C)C)[C@@H](COC(=O)OCC(C)(C)C)O2)c(=O)[nH]c1=O [T21]
- activation at 1 µM [1]: 5 to 13%
- activation at 10 µM [1]: 19 to 26%

Compound: Cc1cn([C@H]2C[C@H](OC(=O)OC(C)C)[C@@H](COC(=O)OC(C)C)O2)c(=O)[nH]c1=O [T22]
- activation at 1 µM [1]: 2 to 7%
- activation at 10 µM [1]: 10 to 17%
- activation at 100 µM [1]: 9 to 16%

Compound: Cc1cn([C@H]2C[C@H](OC(=O)OC(C)(C)C)[C@@H](COC(=O)OC(C)(C)C)O2)c(=O)[nH]c1=O [T23]
- activation at 1 µM [1]: 2 to 7%
- activation at 10 µM [1]: 5 to 11%
- activation at 100 µM [1]: 20 to 26%

Compound: Cc1cn([C@H]2C[C@H](OC(=O)C(C)(C)C)[C@@H](COC(=O)C(C)(C)C)O2)c(=O)[nH]c1=O [T24]
- activation at 1 µM [1]: 27 to 35%
- activation at 10 µM [1]: 21 to 27%

Compound: Cc1cn([C@H]2C[C@H](O)[C@@H](COC(=O)[C@H](C)c3ccc(-c4ccccc4)c(F)c3)O2)c(=O)[nH]c1=O [T29]
- Cell Survival Rate (increased percentage of cell survival compared with the Group of 5-FU) [2]: 19%-25%
- Cell Survival Rate (increased percentage of cell survival compared with the Group of 5-FU) [3]: 19%-27%
- Cell Survival Rate (increased percentage of cell survival compared with the Group of 5-FU) [4]: 35%-42%
- Cell Survival Rate (increased percentage of cell survival compared with the Group of 5-FU) [5]: 43%-50%
- Cell Survival Rate (increased percentage of cell survival compared with the Group of 5-FU) [6]: 69%-76%
- Cell Survival Rate (increased percentage of cell survival compared with the Group of 5-FU) [7]: 54%-62%
- Cell Survival Rate (increased percentage of cell survival compared with the Group of 5-FU) [8]: 48%-54%

Compound: Cc1cn([C@H]2C[C@H](O)[C@@H](COC(=O)C(C)c3ccc(CC(C)C)cc3)O2)c(=O)[nH]c1=O (some centres unmarked) [T30]
- Cell Survival Rate (increased percentage of cell survival compared with the Group of 5-FU) [4]: 39%-47%
- Cell Survival Rate (increased percentage of cell survival compared with the Group of 5-FU) [5]: 45%-53%
- Cell Survival Rate (increased percentage of cell survival compared with the Group of 5-FU) [6]: 54%-61%
- Cell Survival Rate (increased percentage of cell survival compared with the Group of 5-FU) [7]: 44%-51%
- Cell Survival Rate (increased percentage of cell survival compared with the Group of 5-FU) [8]: 39%-46%

Compound: Cc1cn([C@H]2C[C@H](O)[C@@H](COC(=O)[C@@H](C)c3ccc(CC(C)C)cc3)O2)c(=O)[nH]c1=O [T31]
- Cell Survival Rate (increased percentage of cell survival compared with the Group of 5-FU) [2]: 23%-30%
- Cell Survival Rate (increased percentage of cell survival compared with the Group of 5-FU) [3]: 29%-38%
- Cell Survival Rate (increased percentage of cell survival compared with the Group of 5-FU) [4]: 37%-43%
- Cell Survival Rate (increased percentage of cell survival compared with the Group of 5-FU) [5]: 41%-47%
- Cell Survival Rate (increased percentage of cell survival compared with the Group of 5-FU) [6]: 44%-51%

Compound: Cc1cn([C@H]2C[C@H](O)[C@@H](COC(=O)C3CCn4c(C(=O)c5ccccc5)ccc43)O2)c(=O)[nH]c1=O (some centres unmarked) [T34]
- Cell Survival Rate (increased percentage of cell survival compared with the Group of 5-FU) [6]: 28%-35%
- Cell Survival Rate (increased percentage of cell survival compared with the Group of 5-FU) [7]: 43%-51%
- Cell Survival Rate (increased percentage of cell survival compared with the Group of 5-FU) [8]: 69%-77%
- Cell Survival Rate (increased percentage of cell survival compared with the Group of 5-FU) [9]: 67%-74%

Compound: COc1ccc2c(c1)c(CC(=O)OC[C@H]1O[C@@H](n3cc(C)c(=O)[nH]c3=O)C[C@@H]1O)c(C)n2C(=O)c1ccc(Cl)cc1 [T38]
- Cell Survival Rate (increased percentage of cell survival compared with the Group of 5-FU) [2]: 13%-21%
- Cell Survival Rate (increased percentage of cell survival compared with the Group of 5-FU) [3]: 29%-38%
- Cell Survival Rate (increased percentage of cell survival compared with the Group of 5-FU) [4]: 38%-47%
- Cell Survival Rate (increased percentage of cell survival compared with the Group of 5-FU) [5]: 46%-55%
- Cell Survival Rate (increased percentage of cell survival compared with the Group of 5-FU) [6]: 53%-60%
- Cell Survival Rate (increased percentage of cell survival compared with the Group of 5-FU) [7]: 58%-65%
- Cell Survival Rate (increased percentage of cell survival compared with the Group of 5-FU) [8]: 67%-75%
- Cell Survival Rate (increased percentage of cell survival compared with the Group of 5-FU) [9]: 55%-63%
